Results published in PubChem BioAssay AID1259407 (Chemical Carcinogenesis Research Information System (CCRIS), 2018).
The source made the active and inactive calls. The rule behind the calls is not given here.

Test system: CCRIS mutagenicity, Ames/micronucleus/aberration tests
Assay: CCRIS mutagenicity studies
[1] = Test System: AMES SALMONELLA TYPHIMURIUM, Strain/Indicator: TA97, Metabolic Activation: NONE, Method: STANDARD PLATE
[2] = Test System: AMES SALMONELLA TYPHIMURIUM, Strain/Indicator: TA98, Metabolic Activation: NONE, Method: STANDARD PLATE
[3] = Test System: AMES SALMONELLA TYPHIMURIUM, Strain/Indicator: TA100, Metabolic Activation: NONE, Method: STANDARD PLATE
[4] = Test System: AMES SALMONELLA TYPHIMURIUM, Strain/Indicator: TA102, Metabolic Activation: NONE, Method: STANDARD PLATE
[5] = Test System: AMES SALMONELLA TYPHIMURIUM, Strain/Indicator: TA98, Metabolic Activation: RAT, LIVER, S-9, AROCLOR 1254, Method: STANDARD PLATE
[6] = Test System: AMES SALMONELLA TYPHIMURIUM, Strain/Indicator: TA100, Metabolic Activation: RAT, LIVER, S-9, AROCLOR 1254, Method: STANDARD PLATE

Measured: mutagenic call

CCCCCCCC/C=C\CCCCCCCCCCCC(=O)NCCCCCCCCCCCCCCCCCC
inactive: [1] inactive; negative | Test System: AMES SALMONELLA TYPHIMURIUM, Strain/Indicator: TA97, Metabolic Activation: S-9, Method: STANDARD PLATE inactive; negative | [2] inactive; negative | Test System: AMES SALMONELLA TYPHIMURIUM, Strain/Indicator: TA98, Metabolic Activation: S-9, Method: STANDARD PLATE inactive; negative | [3] inactive; negative | Test System: AMES SALMONELLA TYPHIMURIUM, Strain/Indicator: TA100, Metabolic Activation: S-9, Method: STANDARD PLATE inactive; negative | [4] inactive; negative | Test System: AMES SALMONELLA TYPHIMURIUM, Strain/Indicator: TA102, Metabolic Activation: S-9, Method: STANDARD PLATE inactive; negative | Test System: E.COLI, Strain/Indicator: WP2 (PKM101), Metabolic Activation: NONE, Method: STANDARD PLATE inactive; negative | Test System: E.COLI, Strain/Indicator: WP2 (PKM101), Metabolic Activation: S-9, Method: STANDARD PLATE inactive; negative

CC/C=C\C/C=C\C/C=C\CCCCCCCC(=O)O
inactive: Test System: AMES SALMONELLA TYPHIMURIUM, Strain/Indicator: TA98, Metabolic Activation: HAMSTER, LIVER, S-9, AROCLOR 1254, Method: STANDARD PLATE inactive; negative | [2] inactive; negative | [5] inactive; negative | Test System: AMES SALMONELLA TYPHIMURIUM, Strain/Indicator: TA100, Metabolic Activation: HAMSTER, LIVER, S-9, AROCLOR 1254, Method: STANDARD PLATE inactive; negative | [3] inactive; negative | [6] inactive; negative | Test System: AMES SALMONELLA TYPHIMURIUM, Strain/Indicator: TA1535, Metabolic Activation: HAMSTER, LIVER, S-9, AROCLOR 1254, Method: STANDARD PLATE inactive; negative | Test System: AMES SALMONELLA TYPHIMURIUM, Strain/Indicator: TA1535, Metabolic Activation: NONE, Method: STANDARD PLATE inactive; negative | Test System: AMES SALMONELLA TYPHIMURIUM, Strain/Indicator: TA1535, Metabolic Activation: RAT, LIVER, S-9, AROCLOR 1254, Method: STANDARD PLATE inactive; negative | Test System: AMES SALMONELLA TYPHIMURIUM, Strain/Indicator: TA1537, Metabolic Activation: HAMSTER, LIVER, S-9, AROCLOR 1254, Method: STANDARD PLATE inactive; negative | Test System: AMES SALMONELLA TYPHIMURIUM, Strain/Indicator: TA1537, Metabolic Activation: NONE, Method: STANDARD PLATE inactive; negative | Test System: AMES SALMONELLA TYPHIMURIUM, Strain/Indicator: TA1537, Metabolic Activation: RAT, LIVER, S-9, AROCLOR 1254, Method: STANDARD PLATE inactive; negative | Test System: AMES SALMONELLA TYPHIMURIUM, Strain/Indicator: TA1538, Metabolic Activation: HAMSTER, LIVER, S-9, AROCLOR 1254, Method: STANDARD PLATE inactive; negative | Test System: AMES SALMONELLA TYPHIMURIUM, Strain/Indicator: TA1538, Metabolic Activation: NONE, Method: STANDARD PLATE inactive; negative | Test System: AMES SALMONELLA TYPHIMURIUM, Strain/Indicator: TA1538, Metabolic Activation: RAT, LIVER, S-9, AROCLOR 1254, Method: STANDARD PLATE inactive; negative | Test System: MOUSE LYMPHOMA, Strain/Indicator: L5178Y (TK+/TK-), Metabolic Activation: NONE, Method: SUSPENSION/PLATE inactive; negative. reevaluation of results: inconclusive | Test System: MOUSE LYMPHOMA, Strain/Indicator: L5178Y (TK+/TK-), Metabolic Activation: RAT, LIVER, S-9, AROCLOR 1254, Method: SUSPENSION/PLATE inactive; negative. reevaluation of results: negative

Cc1ccncc1
inactive: [1] inactive; negative | Test System: AMES SALMONELLA TYPHIMURIUM, Strain/Indicator: TA97, Metabolic Activation: RAT, LIVER, S-9, AROCLOR 1254, Method: STANDARD PLATE inactive; negative | [2] inactive; negative | [5] inactive; negative | [3] inactive; negative | [6] inactive; negative | [4] inactive; negative | Test System: AMES SALMONELLA TYPHIMURIUM, Strain/Indicator: TA102, Metabolic Activation: RAT, LIVER, S-9, AROCLOR 1254, Method: STANDARD PLATE inactive; negative

CC1(C(Cl)Cl)C2[C@@H](Cl)[C@H](Cl)C1(C(Cl)Cl)[C@@H](Cl)[C@@H]2Cl (stereo partly specified)
inactive: Test System: AMES SALMONELLA TYPHIMURIUM, Strain/Indicator: TA100, Metabolic Activation: NONE, Method: PREINCUBATION inactive; negative
